We go through 43 compounds from patent publication US10106501B2, “Nuclear receptor modulators” (AbbVie Inc., priority 2015, dated 2018).

pIC50: −log10 of the molar value.

One assay has as its target T1, chimeric human RORγ-Gal4 receptor (Homo sapiens, UniProt P51449).
T1 sequence (P51449 269-508 limits assumed): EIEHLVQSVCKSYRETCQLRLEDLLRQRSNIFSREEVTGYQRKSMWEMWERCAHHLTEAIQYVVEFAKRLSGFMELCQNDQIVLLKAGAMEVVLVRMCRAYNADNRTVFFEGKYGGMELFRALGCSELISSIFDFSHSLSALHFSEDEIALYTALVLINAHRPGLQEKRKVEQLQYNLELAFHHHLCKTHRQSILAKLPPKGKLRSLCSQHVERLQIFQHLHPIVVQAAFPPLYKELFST
The assay can be described thus: transient transactivation assay (RORγ-Gal4 luciferase reporter). It is filed as cell-based. The conditions noted are these: Cos-7 cells transfected with RORγ-Gal4 and 5Gal4 pGL3 TK Luc reporter; overnight incubation; T0901317 at 10^-5 M as reference; read-out: IC50. (In general: A reporter such as luciferase makes a cellular process visible.)
For `Cn1c(Cc2c(Cl)ccc(C(=O)N3CCN(C4CC(C(=O)O)C4)CC3)c2Cl)cc2ccc(C(F)(F)F)cc21` (stereo not shown) [O, 3-(4-(2,4-dichloro-3-((1-methyl-6-(trifluoromethyl)-1H-indol-2-yl)methyl)benzoyl)piperazin-1-yl)cyclobutanecarboxylic acid], the pIC50 (in general, the negative decadic logarithm of the IC50, by convention in mol/L) was 6.30 to 7.00.

For `O=C(O)CC1CCN(C(=O)c2ccc(Cl)c(C(=O)n3ccc4cc(C5CC5)cc(F)c43)c2Cl)CC1` [EO, 2-(1-(2,4-dichloro-3-(5-cyclopropyl-7-fluoro-1H-indole-1-carbonyl)benzoyl)piperidin-4-yl)acetic acid], the negative-log IC50 (pIC50) is > 7.00.

Consider `O=C(O)CC1CCN(C(=O)c2ccc(Cl)c(Cn3ccc4cc(C5CC5)cc(F)c43)c2Cl)CC1` [EN, 2-(1-(2,4-dichloro-3-((5-cyclopropyl-7-fluoro-1H-indol-1-yl)methyl)benzoyl)piperidin-4-yl)acetic acid], for which the pIC50 is > 7.00.

As to `Cn1c(Cc2c(Cl)ccc(C(=O)N3CCC(CO)CC3)c2Cl)cc2ccc(C(F)(F)F)cc21` [Example L-2], the pIC50 is 6.30 to 7.00.

Take `Cc1cn(Cc2c(Cl)cnc(C(=O)N3CCC(CC(=O)O)CC3)c2Cl)c2c(C)cc(C(F)(F)F)cc12` [Example FR, 2-(1-(3,5-dichloro-4-((3,7-dimethyl-5-(trifluoromethyl)-1H-indol-1-yl)methyl)picolinoyl)piperidin-4-yl)acetic acid]: the negative logarithm of the IC50 (pIC50) is > 7.00.

Consider `Cc1cc(C(F)(F)F)nn2c(C)c(Cc3c(Cl)ccc(C(=O)N4CCN(S(C)(=O)=O)[C@H](C)C4)c3Cl)nc12` [CZ-3], for which the negative logarithm of the IC50 (pIC50) is 6.30 to 7.00.

Regarding `Cc1cc(C(F)(F)F)cc2c1nc(Cc1c(Cl)ccc(CN3CCCC(C)(O)C3)c1Cl)n2C` (stereo not shown) [BW-17], the pIC50 is 6.30 to 7.00.

For `Cc1cc(C#N)cc2c1nc(Cc1c(Cl)ccc(C(=O)N3CCC(N(C)C)CC3)c1Cl)n2C` [BN-14], the pIC50 was 5.00 to 6.00.

Take `Cc1ncc(C(=O)N2CCOCC2)c(C)c1Cc1cc2c(C)cc(C(F)(F)F)cc2n1C` [Example BB, (5-((1,4-dimethyl-6-(trifluoromethyl)-1H-indol-2-yl)methyl)-4,6-dimethylpyridin-3-yl)(morpholino)methanone]: the negative logarithm of the IC50 (pIC50) was 6.00 to 6.30.

On to `Cc1cc(C(F)(F)F)cc2c1nc(Cc1c(Cl)ccc(CN3CCC(CO)CC3)c1Cl)n2C` [BW-14], for which the pIC50 is 6.30 to 7.00.

Regarding `Cc1cn(Cc2c(Cl)ccc(C(=O)N3CCC(CC(=O)O)CC3)c2Cl)c2c(C)cc(OC(F)(F)F)cc12` [EG, 2-[1-[2,4-dichloro-3-[[3,7-dimethyl-5-(trifluoromethoxy)-1H-indol-1-yl]methyl]benzoyl]-4-piperidyl]acetic acid], the negative logarithm of the IC50 (pIC50) was > 7.00.

On to `Cc1cc(C#N)cc2c1cc(Cc1c(Cl)ccc(C(=O)N3CC(O)C3)c1Cl)n2C` [AA-20], for which the pIC50 was 6.30 to 7.00.

On to `Cc1cc(C(F)(F)F)cc2c1cc(Cc1c(Cl)ccc(C(=O)N3CC[C@H](C(=O)O)[C@@H](C)C3)c1Cl)n2C` [Example B-26], for which the pIC50 was > 7.00.

As for `Cc1cc(C(F)(F)F)cc2c(C)n(Cc3c(Cl)ccc(C(=O)N4CCC(CC(=O)O)CC4)c3Cl)nc12` [DG, 2-(1-(2,4-dichloro-3-((3,7-dimethyl-5-(trifluoromethyl)-2H-indazol-2-yl)methyl)benzoyl)piperidin-4-yl)acetic acid], the negative logarithm of the IC50 (pIC50) is > 7.00.

Regarding `Cc1cc(C(F)(F)F)cc2c(C)n(C(=O)c3c(Cl)ccc(C(=O)N4CCC(CC(=O)O)CC4)c3Cl)nc12` [EB, 2-(1-(2,4-dichloro-3-(3,7-dimethyl-5-(trifluoromethyl)-2H-indazole-2-carbonyl)benzoyl)piperidin-4-yl)acetic acid], the negative logarithm of the IC50 (pIC50) was > 7.00.

Take `O=C(O)CC1CCN(C(=O)c2ccc(Cl)c(Cn3ccc4cc(C(F)(F)F)cc(F)c43)c2Cl)CC1` [EP, 2-(1-(2,4-dichloro-3-((7-fluoro-5-(trifluoromethyl)-1H-indol-1-yl)methyl)benzoyl)piperidin-4-yl)acetic acid]: the pIC50 is > 7.00.

As for `COC1CCN(C(=O)c2ccc(Cl)c(Cc3nc4c(C)cc(C(F)(F)F)cn4c3C)c2Cl)CC1` [CT-6], the negative-log IC50 (pIC50) is > 7.00.

In the case of `Cc1cc(C(F)(F)F)cc2c1cc(Cc1c(Cl)ccc(C(=O)N3CCC(C(=O)O)C3)c1Cl)n2C` (stereo not shown) [Example B-3], the negative-log IC50 (pIC50) was 6.30 to 7.00.

Turning to `Cc1cc(C(F)(F)F)cc2c1nc(Cc1c(Cl)ccc(C(=O)N3CCC4(CCOC4)CC3)c1Cl)n2C` [BJ-8], the pIC50 is > 7.00.

Regarding `Cc1cc(C(F)(F)F)cc2c1cc(Cc1c(Cl)ccc(C(=O)N3CCC(CC(=O)O)C(C)C3)c1Cl)n2C` (stereo not shown) [Example B-21], the negative logarithm of the IC50 (pIC50) was > 7.00.

With `Cc1nc(C(F)(F)F)cc2c1cc(Cc1c(Cl)ccc(C(=O)N3CCN(C4COC4)CC3)c1Cl)n2C` [Example FJ, (2,4-dichloro-3-((1,4-dimethyl-6-(trifluoromethyl)-1H-pyrrolo[3,2-c]pyridin-2-yl)methyl)phenyl)(4-(oxetan-3-yl)piperazin-1-yl)methanone], the negative logarithm of the IC50 (pIC50) was > 7.00.

In the case of `O=C(O)CC1CCN(C(=O)c2ccc(Cl)c(Cn3ccc4cccc(Cl)c43)c2Cl)CC1` [EI-3], the pIC50 is > 7.00.

Regarding `CC(=O)N1CCN(C(=O)c2ccc(Cl)c(Cc3cc4ccc(C(F)(F)F)cc4n3C)c2Cl)CC1` [Example L-3], the negative logarithm of the IC50 (pIC50) is 6.30 to 7.00.

For the compound `Cn1c(Cc2c(Cl)ccc(C(=O)N3CCC(CC(=O)O)CC3)c2Cl)cc2c(F)cc(C3CC3)cc21` [Example FM, 2-(1-(2,4-dichloro-3-((6-cyclopropyl-4-fluoro-1-methyl-1H-indol-2-yl)methyl)benzoyl)piperidin-4-yl)acetic acid], the pIC50 is > 7.00.

For the compound `Cc1cc(C(F)(F)F)cc2c1cc(Cc1c(Cl)ncc(C(=O)N3CCOCC3)c1Cl)n2C` [Example BH, (4,6-dichloro-5-((1,4-dimethyl-6-(trifluoromethyl)-1H-indol-2-yl)methyl)pyridin-3-yl)(morpholino)methanone], the negative-log IC50 (pIC50) was > 7.00.

As for `Cc1cc(C(F)(F)F)cc2c1nc(Cc1c(Cl)ccc(C(=O)N3CCN(C)C(C)C3)c1Cl)n2C` (stereo not shown) [BJ-31], the negative-log IC50 (pIC50) is 5.00 to 6.00.

As to `Cc1cc(C(F)(F)F)cc2c1nc(Cc1c(Cl)ccc(C(=O)N3CCC(CC(C)(C)O)CC3)c1Cl)n2C` [BJ-14], the pIC50 is 6.30 to 7.00.

For the compound `Cc1cc(OC(F)(F)F)cc2ccn(C(=O)c3c(Cl)ccc(C(=O)N4CCC(CC(=O)O)CC4)c3Cl)c12` [EL, 2-(1-(2,4-dichloro-3-(7-methyl-5-(trifluoromethoxy)-1H-indole-1-carbonyl)benzoyl)piperidin-4-yl)acetic acid], the pIC50 was > 7.00.

For `Cc1cc(C#N)cc2c1cc(C(=O)c1c(Cl)ccc(C(=O)N3CCC(O)CC3)c1Cl)n2C` [Example AN, 2-(2,6-dichloro-3-(4-hydroxypiperidine-1-carbonyl)benzoyl)-1,4-dimethyl-1H-indole-6-carbonitrile], the negative-log IC50 (pIC50) was > 7.00.

As to `Cn1c(Cc2c(Cl)ccc(C(=O)N3CCC(C(=O)O)CC3)c2Cl)cc2c(F)cc(C(F)(F)F)cc21` [FE-2], the pIC50 is > 7.00.

As for `Cc1cc(C(F)(F)F)nc2c1cc(C(=O)c1c(Cl)ccc(C(=O)N3CC[C@@H](C(=O)O)[C@@H](C)C3)c1Cl)n2C` [Example FX, (3R,4R)-1-(2,4-dichloro-3-(1,4-dimethyl-6-(trifluoromethyl)-1H-pyrrolo[2,3-b]pyridine-2-carbonyl)benzoyl)-3-methylpiperidine-4-carboxylic acid], the negative-log IC50 (pIC50) was 6.30 to 7.00.

For the compound `Cc1cc(C(F)(F)F)nn2c(C)c(Cc3c(Cl)ccc(C(=O)N4CCC(C5COC5)CC4)c3Cl)nc12` [CZ-2], the pIC50 is > 7.00.

As for `Cc1cc(C#N)cc2c1cc(Cc1c(Cl)ccc(C(=O)NC3COC3)c1Cl)n2C` [AA-24], the pIC50 is 6.30 to 7.00.

Consider `Cc1cc(OC(F)(F)F)cc2c1cc(Cc1c(Cl)ccc(C(=O)N3CC[C@H](C(=O)O)[C@H](C)C3)c1Cl)n2C` [DP-2, (3S,4S)-1-(2,4-dichloro-3-((1,4-dimethyl-6-(trifluoromethoxy)-1H-indol-2-yl)methyl)benzoyl)-3-methylpiperidine-4-carboxylic acid], for which the pIC50 was > 7.00.

Turning to `Cc1cc(C#N)cc2c1cc(Cc1c(Cl)cnc(C(=O)N3CCN(C4COC4)CC3)c1Cl)n2C` [BF-4], the negative-log IC50 (pIC50) was 6.30 to 7.00.

`Cc1cc(C(F)(F)F)cc2c1cc(Cc1c(Cl)ccc(C(=O)N3CC(C)(C(=O)O)C3)c1Cl)n2C` [Example B-5]: the pIC50 was 6.30 to 7.00.

`Cc1cn(Cc2c(Cl)ccc(C(=O)N3CCC(O)CC3)c2Cl)c2c(C)cc(C#N)cc12` [DK, 1-(2,6-dichloro-3-(4-hydroxypiperidine-1-carbonyl)benzyl)-3,7-dimethyl-1H-indole-5-carbonitrile]: the negative logarithm of the IC50 (pIC50) was 6.30 to 7.00.

As to `Cc1cc(C#N)cn2c(C)c(Cc3c(Cl)ccc(C(=O)N4CCC(C5COC5)CC4)c3Cl)nc12` [CV-5], the negative-log IC50 (pIC50) was 6.30 to 7.00.

Turning to `Cc1ccc(C(=O)N2CCOCC2)c(C)c1Cc1cc2c(C)cc(C(F)(F)F)cc2n1C` [G, (3-((1,4-dimethyl-6-(trifluoromethyl)-1H-indol-2-yl)methyl)-2,4-dimethylphenyl)(morpholino)methanone], the negative-log IC50 (pIC50) is > 7.00.

Turning to `O=C(O)CC1CCN(C(=O)c2ccc(Cl)c(Cn3ccc4cc(C(F)(F)F)cc(Cl)c43)c2Cl)CC1` [EI-5], the pIC50 is > 7.00.

Regarding `COC1CN(C(=O)c2ccc(Cl)c(Cc3cc4c(C)cc(C#N)cc4n3C)c2Cl)C1` [AA-21], the negative logarithm of the IC50 (pIC50) is 6.30 to 7.00.

Consider `Cc1cn(C(=O)c2c(Cl)ncc(C(=O)N3CCC(CC(=O)O)CC3)c2Cl)c2c(C)cc(C(F)(F)F)cc12` [EQ, 2-(1-(4,6-dichloro-5-(3,7-dimethyl-5-(trifluoromethyl)-1H-indole-1-carbonyl)nicotinoyl)piperidin-4-yl)acetic acid], for which the pIC50 was > 7.00.

Staying with this assay, now noted: read-out: IC50.
Turning to `Cc1cc(C(F)(F)F)nc2c1cc(Cc1c(Cl)cnc(C(=O)N3CCOCC3)c1Cl)n2C` [Example GH, (3,5-dichloro-4-((1,4-dimethyl-6-(trifluoromethyl)-1H-pyrrolo[2,3-b]pyridin-2-yl)methyl)pyridin-2-yl)(morpholino)methanone], the negative-log IC50 (pIC50) is > 7.00.
